Test results published in patent publication US20120178738A1, “DIBENZO [B,F] [1,4]OXAZAPINE COMPOUNDS” (ARYX THERAPEUTICS, INC., priority 2007, published 2012).
Like-named read-outs stand apart in the source and are kept apart here.

Experiments:
5-HT2A receptor = molecular target: T1, 5-HT2A receptor (Rattus norvegicus, UniProt P14842); assay: cell-based
T1 construct: Eight strips of tissue (0.5 cm long) were cut. and were mounted in 10 ml organ baths; tissue Charles River Laboratories; host or cells: rat aorta strips, endothelium removed
T1 sequence (P14842 whole entry): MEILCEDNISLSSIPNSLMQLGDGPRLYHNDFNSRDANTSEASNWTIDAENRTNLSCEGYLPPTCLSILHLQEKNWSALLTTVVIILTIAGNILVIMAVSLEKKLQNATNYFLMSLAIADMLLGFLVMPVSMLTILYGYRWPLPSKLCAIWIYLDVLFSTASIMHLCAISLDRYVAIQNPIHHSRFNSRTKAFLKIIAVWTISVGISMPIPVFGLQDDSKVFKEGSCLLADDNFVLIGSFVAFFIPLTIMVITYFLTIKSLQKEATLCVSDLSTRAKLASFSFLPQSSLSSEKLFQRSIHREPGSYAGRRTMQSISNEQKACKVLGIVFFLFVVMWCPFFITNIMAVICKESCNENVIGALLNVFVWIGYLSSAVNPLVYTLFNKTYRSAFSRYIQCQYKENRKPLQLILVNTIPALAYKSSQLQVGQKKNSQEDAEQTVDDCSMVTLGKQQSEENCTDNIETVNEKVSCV
Description: The rat aorta (approximately 7 cm) was isolated and removed from the animal (male Sprague Dawley rat, Charles River Laboratories, Hollister, Calif.). The endothelium was removed mechanically. Eight strips of tissue (0.5 cm long) were cut. and were mounted in 10 ml organ baths kept at 37° C. with Krebs solution (composition in mM: NaCl (118.2), KCl (4.6), CaCl2 (2.5), MgSO4 (1.2), KH2PO4 (1.2), NaHCO3 (24.8) and dextrose (10.0)) that was constantly aerated with carbogen gas (95% O2/5% CO2) to obtain a pH of 7.4. The tissues were subjected to a resting tension of 2 g (3 times, 15 minutes apart, equilibrated in Krebs solution). The tissues were then washed 15 minutes later. Ten minutes later, the tissues were then exposed to 0.1 μM phenylephrine. At the maximal effect, 1 μM acetylcholine was added to confirm the absence of endothelium and then washed twice, 2 minutes apart.
Contractions were recorded as changes in tension from baseline and expressed as a percentage of the maximum response of the agonist (5-HT) concentration-effect curve. Agonist concentration-response curves were fitted using a nonlinear iterative fitting program (GraphPad Prism) using the relationship of Parker and Waud (Parker, R. B. and Waud, D. R. (1971). Pharmacological estimation of drug-receptor dissociation constants. Statistical evaluation. I. Agonists. J. Pharmacol. Exp. Ther., 177, 1-12). Agonist potency was expressed as EC50 (molar concentration of agonist producing 50% of the maximum response). Concentration-ratios (CRs) were determined from EC50 values in the presence and absence of antagonist and antagonist affinity estimates (pKB and pA2 values) were determined. All data are expressed as mean±s.e. mean.

[1] = molecular target: T2, human D2s dopamine receptors (Homo sapiens, UniProt P14416); assay: hD2S receptor radioligand binding ([3H]spiperone); conditions: pKi reported on a scale of 1 through 5
T2 construct: expressed in transfected cells; host or cells: Chinese hamster ovary cells (membranes)
T2 sequence (P14416 1-414 isoform P14416-2): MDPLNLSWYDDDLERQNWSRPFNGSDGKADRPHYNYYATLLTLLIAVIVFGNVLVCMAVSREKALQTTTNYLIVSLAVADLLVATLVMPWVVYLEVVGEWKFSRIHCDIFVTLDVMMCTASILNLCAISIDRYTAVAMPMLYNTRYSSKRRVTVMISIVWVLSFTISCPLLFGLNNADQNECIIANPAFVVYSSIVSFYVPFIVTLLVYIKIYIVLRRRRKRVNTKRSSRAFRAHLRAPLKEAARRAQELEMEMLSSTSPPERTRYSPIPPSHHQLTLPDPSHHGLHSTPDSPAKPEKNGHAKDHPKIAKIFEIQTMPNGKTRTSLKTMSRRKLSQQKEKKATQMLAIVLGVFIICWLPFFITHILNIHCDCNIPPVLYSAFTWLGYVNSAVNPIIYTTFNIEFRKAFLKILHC
Description: (§1) Consistent with standard competition radioligand binding assays, the methodology was based on displacement of radioligand from tissues (or cell lines) bearing the receptor of interest (Cheng, Y. and Prusoff, W. H. (1973). Biochem. Pharmacol. 22, 3099-3108). The measurements were based on the binding of a single concentration of radiolabeled ligand in the presence of various concentrations of unlabeled ligand.
(§2) Tissues (or cellular plasma membrane fractions) were incubated in the presence of radioligand at equilibrium and in the presence of a range of concentrations of the test compounds (which were non-radiolabeled), and the displaced radioligand was separated from the membranes by filtration. Nonspecific binding was assessed by measuring displacement of the radioligand in the presence of a compound known to block binding of the radioligand to the receptor. Finally, the concentration-response relationship for radioligand displacement (corrected for non-specific binding) was used to assess binding of the test compound to the receptor.

[2] = molecular target: T3, human D2L dopamine receptors (Homo sapiens, UniProt P14416); assay: hD2L receptor radioligand binding ([3H]spiperone); conditions: pKi reported on a scale of 1 through 5; read-out: D2L (pKi) (converted)
T3 construct: expressed in transfected cells; host or cells: insect Sf9 cells (membranes)
T3 sequence (P14416 whole entry): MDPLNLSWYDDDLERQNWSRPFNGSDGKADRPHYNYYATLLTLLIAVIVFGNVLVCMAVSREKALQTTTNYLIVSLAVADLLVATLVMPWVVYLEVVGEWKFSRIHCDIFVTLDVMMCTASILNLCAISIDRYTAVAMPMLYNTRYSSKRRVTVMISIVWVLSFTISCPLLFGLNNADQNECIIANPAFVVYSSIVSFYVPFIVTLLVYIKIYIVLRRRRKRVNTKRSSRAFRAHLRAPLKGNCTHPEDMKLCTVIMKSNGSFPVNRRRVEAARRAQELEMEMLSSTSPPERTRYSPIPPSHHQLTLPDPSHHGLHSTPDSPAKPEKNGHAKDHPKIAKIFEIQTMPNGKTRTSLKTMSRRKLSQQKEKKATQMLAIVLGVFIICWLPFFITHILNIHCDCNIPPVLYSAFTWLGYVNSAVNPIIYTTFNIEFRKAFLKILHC
Description: as §1, §2

human 5HT1A receptors = molecular target: T4, human 5HT1A receptors (Homo sapiens, UniProt P08908); assay: h5-HT1A receptor radioligand binding ([3H]8OH-DPAT); conditions: pKi reported on a scale of 1 through 5
T4 construct: expressed in transfected cells; host or cells: Chinese hamster ovary cells (membranes)
T4 sequence (P08908 1-422): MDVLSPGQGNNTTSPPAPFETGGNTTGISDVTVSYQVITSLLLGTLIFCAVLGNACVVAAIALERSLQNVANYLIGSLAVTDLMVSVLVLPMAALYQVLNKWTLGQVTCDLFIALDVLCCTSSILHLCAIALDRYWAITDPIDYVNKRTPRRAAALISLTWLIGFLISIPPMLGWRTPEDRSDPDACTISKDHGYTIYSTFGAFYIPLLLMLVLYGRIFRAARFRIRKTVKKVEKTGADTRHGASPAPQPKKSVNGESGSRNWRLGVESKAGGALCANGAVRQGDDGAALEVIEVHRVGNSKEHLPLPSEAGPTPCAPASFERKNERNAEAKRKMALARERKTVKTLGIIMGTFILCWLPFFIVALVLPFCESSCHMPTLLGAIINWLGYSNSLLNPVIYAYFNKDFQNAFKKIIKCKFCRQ
Description: as §1, §2

human 5HT2C receptors = molecular target: T5, human 5HT2C receptors (Homo sapiens, UniProt P28335); assay: h5-HT2C receptor radioligand binding ([3H]Mesulergine); conditions: pKi reported on a scale of 1 through 5
T5 construct: expressed in transfected cells; host or cells: human embryo kidney cells (membranes)
T5 sequence (P28335 33-458): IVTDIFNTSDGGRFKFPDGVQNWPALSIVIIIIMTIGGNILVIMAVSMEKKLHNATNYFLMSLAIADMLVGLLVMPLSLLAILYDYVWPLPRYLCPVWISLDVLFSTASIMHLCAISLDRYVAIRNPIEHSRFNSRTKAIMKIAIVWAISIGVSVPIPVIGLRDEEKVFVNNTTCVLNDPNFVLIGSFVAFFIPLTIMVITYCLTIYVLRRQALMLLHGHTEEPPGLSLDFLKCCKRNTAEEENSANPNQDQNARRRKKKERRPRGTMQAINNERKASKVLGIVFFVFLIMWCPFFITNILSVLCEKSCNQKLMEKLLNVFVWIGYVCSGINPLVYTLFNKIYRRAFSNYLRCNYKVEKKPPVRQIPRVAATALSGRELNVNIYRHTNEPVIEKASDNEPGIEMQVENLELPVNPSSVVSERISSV
Description: The measurements were based on the binding of a single concentration of radiolabeled ligand in the presence of various concentrations of unlabeled ligand.
as §2

human M3 receptors = molecular target: T6, human M3 receptors (Homo sapiens, UniProt P20309); assay: hM3 receptor radioligand binding ([3H]NMS)
T6 construct: expressed in transfected cells; host or cells: Chinese hamster ovary cells (membranes)
T6 sequence (P20309 whole entry): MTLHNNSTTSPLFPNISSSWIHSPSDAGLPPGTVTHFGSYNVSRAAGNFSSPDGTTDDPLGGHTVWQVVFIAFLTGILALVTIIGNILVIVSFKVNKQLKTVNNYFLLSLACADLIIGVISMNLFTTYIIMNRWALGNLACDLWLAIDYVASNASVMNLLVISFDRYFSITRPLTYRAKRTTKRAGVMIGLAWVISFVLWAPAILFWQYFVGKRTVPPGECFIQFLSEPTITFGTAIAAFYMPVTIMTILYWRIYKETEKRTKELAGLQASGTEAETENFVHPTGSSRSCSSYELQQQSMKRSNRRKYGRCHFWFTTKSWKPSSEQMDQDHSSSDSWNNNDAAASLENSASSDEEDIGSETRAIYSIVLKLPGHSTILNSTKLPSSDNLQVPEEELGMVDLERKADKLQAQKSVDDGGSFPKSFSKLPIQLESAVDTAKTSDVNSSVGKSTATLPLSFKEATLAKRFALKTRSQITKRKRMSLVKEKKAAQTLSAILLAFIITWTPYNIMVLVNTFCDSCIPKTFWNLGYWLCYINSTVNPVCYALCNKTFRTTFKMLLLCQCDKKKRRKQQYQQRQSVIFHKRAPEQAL
Description: as §1, §2

human H1 receptors = molecular target: T7, human H1 receptors (Homo sapiens, UniProt P35367); assay: hH1 receptor radioligand binding ([3H]Pyrilamine); conditions: pKi reported on a scale of 1 through 5
T7 construct: expressed in transfected cells; host or cells: Chinese hamster ovary cells (membranes)
T7 sequence (P35367 whole entry): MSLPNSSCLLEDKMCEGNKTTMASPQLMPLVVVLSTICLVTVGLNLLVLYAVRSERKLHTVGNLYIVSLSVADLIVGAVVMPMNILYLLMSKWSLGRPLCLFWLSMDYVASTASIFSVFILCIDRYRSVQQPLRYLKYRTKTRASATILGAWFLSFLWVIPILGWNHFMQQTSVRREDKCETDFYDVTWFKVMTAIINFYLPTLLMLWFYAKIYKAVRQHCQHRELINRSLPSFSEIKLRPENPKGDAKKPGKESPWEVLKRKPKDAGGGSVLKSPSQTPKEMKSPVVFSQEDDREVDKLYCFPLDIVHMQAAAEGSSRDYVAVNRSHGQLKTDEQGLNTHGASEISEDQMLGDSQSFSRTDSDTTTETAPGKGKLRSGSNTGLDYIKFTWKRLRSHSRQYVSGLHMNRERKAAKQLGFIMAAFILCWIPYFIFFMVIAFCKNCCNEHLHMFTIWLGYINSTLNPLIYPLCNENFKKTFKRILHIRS
Description: as §1, §2

human M1 receptors = molecular target: T8, human M1 receptors (Homo sapiens, UniProt P11229); assay: hM1 receptor radioligand binding ([3H]NMS); conditions: pKi reported on a scale of 1 through 5
T8 construct: expressed in transfected cells; host or cells: Chinese hamster ovary cells (membranes)
T8 sequence (P11229 1-460): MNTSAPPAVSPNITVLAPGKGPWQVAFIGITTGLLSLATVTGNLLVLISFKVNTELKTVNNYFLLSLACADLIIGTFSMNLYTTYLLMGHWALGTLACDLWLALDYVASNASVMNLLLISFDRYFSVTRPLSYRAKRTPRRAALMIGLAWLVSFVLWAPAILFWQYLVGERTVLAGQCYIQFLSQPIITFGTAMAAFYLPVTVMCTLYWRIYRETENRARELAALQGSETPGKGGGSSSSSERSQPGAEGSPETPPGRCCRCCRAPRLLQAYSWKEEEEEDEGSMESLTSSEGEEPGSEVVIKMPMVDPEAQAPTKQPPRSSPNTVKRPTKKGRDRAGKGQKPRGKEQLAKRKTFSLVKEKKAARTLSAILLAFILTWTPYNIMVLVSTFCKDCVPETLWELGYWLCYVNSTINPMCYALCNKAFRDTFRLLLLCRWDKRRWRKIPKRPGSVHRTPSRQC
Description: as §1, §2

human 5HT7 receptors = molecular target: T9, human 5HT7 receptors (Homo sapiens, UniProt P34969); assay: h5-HT7 receptor radioligand binding ([3H]5-CT)
T9 construct: expressed in transfected cells; host or cells: Chinese hamster ovary cells (membranes)
T9 sequence (P34969 whole entry): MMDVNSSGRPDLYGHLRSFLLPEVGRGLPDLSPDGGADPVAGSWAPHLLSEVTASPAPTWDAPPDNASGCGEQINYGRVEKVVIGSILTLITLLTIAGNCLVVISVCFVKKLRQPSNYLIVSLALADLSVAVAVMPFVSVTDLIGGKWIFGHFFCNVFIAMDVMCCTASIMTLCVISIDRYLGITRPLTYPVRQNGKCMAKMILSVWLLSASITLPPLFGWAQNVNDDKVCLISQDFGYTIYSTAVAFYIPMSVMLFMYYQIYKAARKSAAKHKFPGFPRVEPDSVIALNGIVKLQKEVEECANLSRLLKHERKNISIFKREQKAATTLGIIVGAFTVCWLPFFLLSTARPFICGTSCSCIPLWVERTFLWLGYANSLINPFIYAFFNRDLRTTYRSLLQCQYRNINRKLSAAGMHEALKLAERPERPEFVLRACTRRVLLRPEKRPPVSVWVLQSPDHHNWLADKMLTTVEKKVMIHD
Description: as §1, §2

[3] = read-out: 5HT2A (pKb) (converted)
[4] = pKi reported on a scale of 1 through 5, read-out: M3 (pKi) (converted)

Structure (SMILES) | Kb (5-HT2A receptor; [3]) | Ki [1] | Ki [2] | Ki (human 5HT1A receptors) | Ki (human 5HT2C receptors) | Ki (human M3 receptors; [4]) | Ki (human H1 receptors) | Ki (human M1 receptors) | Kb (5-HT2A receptor) | Ki (human M3 receptors) | Ki (human 5HT7 receptors) | Ki (human 5HT7 receptors; pKi reported on a scale of 1 through 5, read-out: 5HT7 (pKi) (converted))
COC(=O)CC1CN(C2=Nc3cc(Cl)ccc3Oc3ccccc32)CCN1 (centres unmarked) [I, (E)-methyl 2-(4-(8-chlorodibenzo[b,f][1,4]oxazepin-11-yl)piperazin-2-yl)acetate] | 10 to 30.9 nM | 2510 to 9770 nM | 2510 to 9770 nM | 100 to 977 nM | 10 to 97.7 nM | > 10000 nM | 100 to 977 nM | 5010 to 9770 nM |  |  |  | 
CN1CCN(C2=Nc3cc(Cl)ccc3Oc3ccccc32)C[C@@H]1CC(=O)O[C@@H]1CN2CCC1CC2 [DS, (S)-quinuclidin-3-yl 2-((S)-4-((E)-8-chlorodibenzo[b,f][1,4]oxazepin-11-yl)-1-methylpiperazin-2-yl)acetate] |  | > 10000 nM |  | 1000 to 9770 nM | 1000 to 9770 nM |  |  |  | > 100 nM | > 10000 nM | > 10000 nM | 
CCOC(=O)CC1CN(C2=Nc3ccc(Cl)cc3Oc3ccccc32)CCN1 (centres unmarked) [H, (E)-ethyl 2-(4-(7-chlorodibenzo[b,f][1,4]oxazepin-11-yl)piperazin-2-yl)acetate] | 31.6 to 97.7 nM | 631 to 2450 nM | 631 to 2450 nM |  | 10 to 97.7 nM | > 10000 nM | 100 to 977 nM | > 10000 nM |  |  |  | 
CCOC(=O)C[C@@H]1CN(C2=Nc3cc(Cl)ccc3Oc3ccccc32)CCN1 [O, (R,E)-ethyl 2-(4-(8-chlorodibenzo[b,f][1,4]oxazepin-11-yl)piperazin-2-yl)acetate] | 31.6 to 97.7 nM | 2510 to 9770 nM | 2510 to 9770 nM | 100 to 977 nM | 10 to 97.7 nM | > 10000 nM | 100 to 977 nM |  |  |  |  | 
C[C@H](O)C[C@H](C)OC(=O)C[C@H]1CN(C2=Nc3cc(Cl)ccc3Oc3ccccc32)CCN1 [EO, (2S,4S)-4-hydroxypentan-2-yl 2-((S)-4-((E)-8-chlorodibenzo[b,f][1,4]oxazepin-11-yl)piperazin-2-yl)acetate] | 10 to 30.9 nM | 631 to 2450 nM |  | ≤ 9.77 nM | 10 to 97.7 nM | > 10000 nM | 10 to 97.7 nM | > 10000 nM |  |  |  | 631 to 1550 nM
O=C(O)C[C@@H]1CN(C2=Nc3cc(Cl)ccc3Oc3ccccc32)CCN1 [AB, (R,E)-2-(4-(8-chlorodibenzo[b,f][1,4]oxazepin-11-yl)piperazin-2-yl)acetic acid] | 31.6 to 97.7 nM | > 10000 nM | > 10000 nM | > 10000 nM | 100 to 977 nM | > 10000 nM | 100 to 977 nM |  |  |  |  | 
COC(=O)C[C@@H]1CN(C2=Nc3cc(Cl)ccc3Oc3ccccc32)CCN1 [Compound P, (R,E)-methyl 2-(4-(8-chlorodibenzo[b,f][1,4]oxazepin-11-yl)piperazin-2-yl)acetate] | 31.6 to 97.7 nM | 2510 to 9770 nM | 2510 to 9770 nM | 1000 to 9770 nM | 100 to 977 nM | > 10000 nM | 100 to 977 nM |  |  |  |  | 
